Experimental data taken from patent publication US12459931B2, “Benzothiophene derivative regulator, preparation method therefor and use thereof” (Shanghai Hansoh Biomedical Co., Ltd., priority 2019, dated 2025).

What was measured:
D3 receptor = D3 receptor (Homo sapiens (Human), UniProt P35462); test: Effect on cAMP content in cells stably expressing D3 receptors (CHO-D3); type: cell-based; details: forskolin stimulated, activation
Experimental: To determine the activation effect of the compounds on D3 receptor.
3. The experimental buffer (1*HBSS, 0.1% BSA, 20 mM HEPES and 500 μM IBMX) was prepared. The compound was diluted with the buffer. 2.5 μL of the compound solution was added to each well, and the plate was incubated at 37° C. for 10 minutes. The forskolin was diluted to 8 μM (8*) with the experimental buffer. […] The reaction plate was centrifuged at 200 g for 30 s at room temperature, and left to stand at 25° C. for 1 h. Data was collected using Envision.

Rats F344 = test: Pharmacodynamic model of active escape experiment in rats; type: in vivo; details: oral, dose 1 mg/kg, one hour before the test
Experimental: V. Pharmacodynamic Model of Active Escape Experiment in Rats
To evaluate the anti-schizophrenic effect of the compounds using the pharmacodynamic model of the active escape experiment in rats.
4. Formulation of the Vehicle and Compounds: • 4.1 Vehicle (0.5% CMC-Na+1% Tween80)
A certain mass (such as 1.0 g) of CMC-Na was weighed into a glass bottle, a certain volume (such as 200 mL) of purified water was added, and the resulting mixture was stirred to disperse evenly. 1% (v/v) Tween 80 was added according to the solution volume, and the resulting mixture was stirred overnight to obtain a homogeneous clear solution, which was stored at 2 to 8° C. for later use. • 4.2 Formulation of the compounds: […]
A formula amount of the compound was weighed, followed by the addition of a formula volume of 0.5% CMC-Na+1% Tween 80 solution. The compound solution was formulated before the administration, stored at 2 to 8° C., and used within 4 days.
The day before the compound screening test, a baseline test was performed. The test procedure was the same as 5.1.1 to 5.1.3, and the number of the baseline test was 20. The animals whose number of avoids reached 16 (80%) were grouped according to the number of avoids, 10 animals per group. The first group was administered with the vehicle orally, and the other groups were administered with the corresponding test compounds according to the experimental design. • 5.3 Compound screening test
The compound was administered orally (5 mL/kg) one hour before the test;
The test procedure was the same as 5.1.1 to 5.1.4, and the number of the test was 20.
The following data was collected by the software for data analysis: • Number of avoids of the animal; • Number of escape failures of the animal; • Escape latency of the animal;
All measurement data were expressed as mean±standard error (Mean±SEM), and analyzed by Graphpad 6 statistical software. The difference was considered to be significant when p<0.05.

[1] = Toxicity test by repeated intragastric administration for 14 days in SD rats (with toxicokinetics); type: in vivo, Sprague-Dawley (SD) rats; details: both sexes, Sprague-Dawley, rat, in vivo, po; SD rats, intragastric once a day for two weeks; read-out: Maximum tolerated dose (MTD)
From the text: (§1) VI. Toxicity Test by Repeated Intragastric Administration for 14 Days in SD Rats
(§2) The objective of this study was to investigate the possible toxicity of compounds after repeated intragastric administration to SD rats for 14 days. • 6.2 Experimental materials and instruments: • 6.2.1 Test compound
(§3) Test compound 1: the compound of Example 42. • 6.2.2 Vehicle:
(§4) Name: 0.5% CMC-Na (1% tween80) aqueous solution • 6.2.3 Animal information:
(§5) Species & strain: Sprague-Dawley (SD) rats
(§6) […] were divided into […] according to their sex and body weight. 40 rats were used for toxicology study (groups 1 to 4, 5 rats/sex/group), and 24 rats were used for toxicokinetics study (groups 5 to 8, 3 rats/sex/group). The animals in groups 1 and 5 were intragastrically administered with 0.5% CMC-Na (1% tween80) aqueous solution as the vehicle control groups. The animals in groups 2 and 6, 3 and 7, 4 and 8 were intragastrically administered with the compound of Example 42 at a dose of 2, 10 and 30 mg/kg, respectively. The animals were administered once a day for 14 consecutive days. The administration volumes were 10 mL/kg. During the experiment, clinical observation, body weight, food intake, body temperature, clinicopathological indicators (blood cell count, coagulation function, blood biochemistry) and toxicokinetics were monitored. All animals were euthanized on D15. During the experiment, the animals in groups 1 to 4 were subjected to gross anatomical observation. Histopathological examination was carried out on abnormal tissue and brain, kidney, adrenal gland, lung and bronchi, prostate, testis and epididymis. • 6.4 List of test data • 6.4.1 Dying/death

SD rats = test: as above; type: in vivo, Sprague-Dawley (SD) rats
From the text: as §1, §2, §3, §4, §5, §6

[2] = Stability assay in liver microsome in vitro; type: in vitro ADME, Mouse
Experimental: IV. Stability Assay in Liver Microsome In Vitro
To evaluate the metabolic stability of the compounds of the present invention in liver microsome in vitro.
Formulation of the working solution of the compound: 2 μL of the stock solution of the compound was added to 998 μL of phosphate buffer, and the final concentration was 20 μM.
Formulation of the working solution of the control compound (7-hydroxycoumarin): The formulation was consistent with that of the compound. • 3.2. Formulation of the working solution of liver microsome
78.1 μL of 20 mg/mL microsome was diluted to 2.5 mL with 100 mM phosphate buffer and mixed well, and the final concentration was 0.625 mg/mL. • 3.3. Formulation of NADPH and UDPGA
33.3 mg of NADPH and 25.8 mg of UDPGA were weighed respectively, followed by the addition of 2 mL of 100 mM phosphate buffer. The final concentrations were 20 mM. • 3.4. Formulation of the channel-forming reagent (Alamethicin)
1 mg of Alamethicin was weighed, to which 200 μL of DMSO was added to obtain a 5 mg/mL solution. 10 μL of this solution was added to 990 μL of phosphate buffer (pH 7.4), and the final concentration was 50 μg/mL. • 3.5. Formulation of the reaction stop solution
Stop solution: Cold acetonitrile containing 100 ng/mL labetalol hydrochloride and 400 ng/mL tolbutamide was used as internal standards, and stored in a refrigerator at 2 to 8° C. • 3.6. Incubation procedure
400 μL of the formulated liver microsome, 25 μL of the working solution of the compound […] and 25 μL of Alamethicin (50 μg/mL) were added to a 96-well plate successively, which was then pre-incubated at 37° C. for 10 min. 50 μL of the formulated NADPH/UDPGA was added to initiate the reaction, and the plate was incubated at 37° C. The total volume of the reaction system was 500 μL. The final contents of the components were as follows:
[…] The resulting sample was centrifuged at 4000 g for 10 min, and the supernatant was collected for LC-MS/MS analysis.

[3] = SD rats, 2, 10 or 30 mg/kg, two weeks

Sequence of D3 receptor (P35462 whole entry): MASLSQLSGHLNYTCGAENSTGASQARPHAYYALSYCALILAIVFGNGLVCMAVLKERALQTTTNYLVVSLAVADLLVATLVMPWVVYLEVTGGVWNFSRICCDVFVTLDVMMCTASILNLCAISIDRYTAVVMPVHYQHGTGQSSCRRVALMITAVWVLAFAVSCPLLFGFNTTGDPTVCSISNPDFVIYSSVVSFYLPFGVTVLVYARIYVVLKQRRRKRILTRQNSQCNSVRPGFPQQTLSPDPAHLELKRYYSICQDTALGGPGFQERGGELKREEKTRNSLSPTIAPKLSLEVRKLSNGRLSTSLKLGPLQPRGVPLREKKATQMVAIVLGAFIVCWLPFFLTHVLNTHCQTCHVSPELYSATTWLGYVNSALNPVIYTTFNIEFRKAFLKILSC

| half-life at 1 μM ([2]; CD-1, liver microsomes, pH 7.4, Mouse liver microsome 0.5 mg/mL, compound 1 μM, NADPH/UDPGA, read-out: Half life (t1/2)) [h] | microsomal CLint at 1 μM ([2]; CD-1, liver microsomes, pH 7.4, Mouse liver microsome, note: Slow <8.8, Rapid >48.0, read-out: Intrinsic clearance rate (CLint)) [µL/min/mg] | Remaining (%, 120 min) ([2]; Mouse liver microsome, 120 min) [%] | Compound | EC50 (D3 receptor) [nM] | CAR value (Rats F344) [%] | EF (Rats F344) [%] | MTD at 14 days [1] [mg/kg] | Main target organs for toxicity (SD rats; [3]) | Main toxic responses: blood counts (SD rats; [3]) | Main toxic responses: body weight, food intake and body temperature (SD rats; [3]) | Main toxic responses: coagulation function (SD rats; [3]) | Accumulation (SD rats; SD rats, 14 days intragastric, 2, 10 or 30 mg/kg) | Average exposure versus dose (SD rats; SD rats, female and male, D1 and D14) |
| --- | --- | --- | --- | --- | --- | --- | --- | --- | --- | --- | --- | --- | --- |
|  |  |  | O=C(N[C@H]1CC[C@H](CCN2CCN(c3cccc4sccc34)CC2)CC1)C1(O)CC1 [Example 42, N-(Trans-4-(2-(4-(benzo[b]thiophen-4-yl)piperazin-1-yl)ethyl)cyclohexyl)-1-hydroxycyclopropane-1-carboxamide] | 1.1 | 46.5 | 0 | 30 | the lungs and adrenal glands | WBC, Lymph, Retic and PLT are decreased | body weight, food intake and body temperature are decreased | FIB wis decreased, and APTT is shortened | no accumulation | increased with the increase of the dose |
| 2.72 | 21.3 | 80.6 | CC(C)(O)C(=O)N[C@H]1CC[C@H](CCN2CCN(c3cccc4sccc34)CC2)CC1 [Example 41, N-(Trans-4-(2-(4-(benzo[b]thiophen-4-yl)piperazin-1-yl)ethyl)cyclohexyl)-2-hydroxy-2-methylpropanamide] |  |  |  |  |  |  |  |  |  |  |
